The values that follow come from US11572399B2, “Long-acting GIP peptide analogues” (University of Copenhagen, priority 2017, dated 2023).

Read-outs that look alike come from different tables or passages of the source.

Series [1] has as its target T1, human GIP receptor (Homo sapiens, UniProt P48546).
T1 construct: host or cells: COS-7, transient transfection (calcium phosphate), cDNA in pCMV-Script
T1 sequence (P48546 22-466): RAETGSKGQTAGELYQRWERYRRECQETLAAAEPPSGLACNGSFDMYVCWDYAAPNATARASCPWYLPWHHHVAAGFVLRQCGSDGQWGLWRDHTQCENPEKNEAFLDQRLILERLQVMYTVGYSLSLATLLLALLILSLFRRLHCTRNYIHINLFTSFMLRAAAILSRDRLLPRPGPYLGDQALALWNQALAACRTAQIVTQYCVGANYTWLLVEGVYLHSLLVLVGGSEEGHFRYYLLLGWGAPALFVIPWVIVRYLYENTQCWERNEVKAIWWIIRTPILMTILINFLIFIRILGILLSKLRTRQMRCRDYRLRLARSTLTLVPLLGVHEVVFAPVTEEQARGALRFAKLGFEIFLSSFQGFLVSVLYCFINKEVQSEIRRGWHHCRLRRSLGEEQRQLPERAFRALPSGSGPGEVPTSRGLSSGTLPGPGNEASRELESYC
Description: cAMP accumulation assay, agonism (ligand alone). It is filed as cell-based. To be noted: COS-7 cells, Table 1; for Emax: COS-7, intrinsic cAMP activity. (Cyclic AMP is a second messenger, typically raised through Gs and lowered through Gi signalling.)

In series [2] the target is T1, human GIP receptor. Description: 125I-human GIP competition binding assay, in the presence and absence of 2% HSA.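 As to all read-outs here: nonspecific binding taken as radioligand bound to untransfected cells, IC50 obtained from nonlinear regression fits.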 To be noted: for Fold change HSA (2%)/Casein (0.1%): IC50 (plus HSA)/IC50 (minus HSA).
Description: Transient transfection of the COS-7 cells for cAMP accumulation and competition binding was performed using the calcium phosphate precipitation method with the addition of chloroquine^46-47.
Transient transfected COS-7 cells expressing the human GIP receptor were seeded in clear 96-well plates the day after transfection using a number of cells/well that obtained 5-10% specific binding of the added radioactive ligand. The following day, cells were assayed by competition binding for 3 h at 4° C. using 15-40 pM 125 I-human GIP as well as increasing concentrations unlabeled ligand in 50 mM Hepes buffer (pH 7.2) in the presence and absence of 2% HSA. After incubation, the cells were washed twice in ice-cold binding buffer (+/−2% HSA) and lysed using 200 mM NaOH with 1% SDS for 30 min. Nonspecific binding was determined as the binding of radioactive ligand to untransfected cells.
IC50, EC50, and Ki values were determined by nonlinear regression. […] Ki values were based on the formula for one class of binding sites in homologous competition binding studies and the Cheng Prussoffs formula, respectively (DeBlasi et al., 1989). To determine the HSA binding potential, the fold change in affinity (as determined by IC50) was calculated as IC50 (plus HSA)/IC50 (minus HSA).
The mark [3] stands for this setting: binding in 0.1% casein (absence of HSA), log value, read-out: logIC50 0.1% casein (converted).
Setting [4] is: heterologous competition binding, transiently transfected COS-7 cells expressing the human GIP receptor, read-out: Binding.

Take `CC[C@H](C)[C@H](NC(=O)[C@H](CO)NC(=O)[C@H](Cc1ccc(O)cc1)NC(=O)[C@H](CC(=O)O)NC(=O)[C@H](CO)NC(=O)[C@@H](NC(=O)[C@H](Cc1ccccc1)NC(=O)[C@@H](N)[C@@H](C)O)[C@@H](C)CC)C(=O)N[C@@H](C)C(=O)N[C@@H](CCSC)C(=O)N[C@@H](CC(=O)O)C(=O)N[C@@H](CCCCNC(=O)CCCCCCCCCCCCC(=O)O)C(=O)N[C@H](C(=O)N[C@@H](Cc1c[nH]cn1)C(=O)N[C@@H](CCC(N)=O)C(=O)N[C@@H](CCC(N)=O)C(=O)N[C@@H](CC(=O)O)C(=O)N[C@@H](Cc1ccccc1)C(=O)N[C@H](C(=O)N[C@@H](CC(N)=O)C(=O)N[C@@H](Cc1c[nH]c2ccccc12)C(=O)N[C@@H](CC(C)C)C(=O)N[C@@H](CC(C)C)C(=O)N[C@@H](C)C(=O)N[C@@H](CCC(N)=O)C(=O)N[C@@H](CCCCN)C(N)=O)C(C)C)[C@@H](C)CC` [AT139, [hGIP(5-30)NH2—C14diacid/16]]: the Emax – broadly, the maximal effect, on the per cent scale that the assay sets – at human GIP receptor [1] was 0%. For the same compound, the “Fold change HSA (2%)/Casein (0.1%)” value on human GIP receptor [2] is 2.6. For the same compound, the IC50 at human GIP receptor [2] (setting [3]) is 158 nM; at human GIP receptor [2] (setting [4]), 153 nM.
On to `CCCCCCCCCCCC(=O)NCCCC[C@H](NC(=O)[C@H](CC(=O)O)NC(=O)[C@H](CCSC)NC(=O)[C@H](C)NC(=O)[C@@H](NC(=O)[C@H](CO)NC(=O)[C@H](Cc1ccc(O)cc1)NC(=O)[C@H](CC(=O)O)NC(=O)[C@H](CO)NC(=O)[C@@H](NC(=O)[C@H](Cc1ccccc1)NC(=O)[C@@H](NC(=O)CNC(=O)[C@@H](N)CCC(=O)O)[C@@H](C)O)[C@@H](C)CC)[C@@H](C)CC)C(=O)N[C@H](C(=O)N[C@@H](CCCNC(=N)N)C(=O)N[C@@H](CCC(N)=O)C(=O)N[C@@H](CCC(N)=O)C(=O)N[C@@H](CC(=O)O)C(=O)N[C@@H](Cc1ccccc1)C(=O)N[C@H](C(=O)N[C@@H](CC(N)=O)C(=O)N[C@@H](Cc1c[nH]c2ccccc12)C(=O)N[C@@H](CC(C)C)C(=O)N[C@@H](CC(C)C)C(=O)N[C@@H](C)C(=O)N[C@@H](CCC(N)=O)C(=O)N[C@@H](CCCNC(=N)N)C(N)=O)C(C)C)[C@@H](C)CC` [AT153, [hGIP(3-30)NH2[H18R; K30R]-C12/16]], for which the Emax on human GIP receptor [1] turned out to be 0%. The IC50 on human GIP receptor [2] (setting [4]) is 316 nM.
In turn, `CCCCCCCCCCCCCCCC(=O)N[C@@H](CCC(=O)O)C(=O)NCC(=O)N[C@H](C(=O)N[C@@H](Cc1ccccc1)C(=O)N[C@H](C(=O)N[C@@H](CO)C(=O)N[C@@H](CC(=O)O)C(=O)N[C@@H](Cc1ccc(O)cc1)C(=O)N[C@@H](CO)C(=O)N[C@H](C(=O)N[C@@H](C)C(=O)N[C@@H](CCSC)C(=O)N[C@@H](CC(=O)O)C(=O)N[C@@H](CCCCN)C(=O)N[C@H](C(=O)N[C@@H](Cc1c[nH]cn1)C(=O)N[C@@H](CCC(N)=O)C(=O)N[C@@H](CCC(N)=O)C(=O)N[C@@H](CC(=O)O)C(=O)N[C@@H](Cc1ccccc1)C(=O)N[C@H](C(=O)N[C@@H](CC(N)=O)C(=O)N[C@@H](Cc1c[nH]c2ccccc12)C(=O)N[C@@H](CC(C)C)C(=O)N[C@@H](CC(C)C)C(=O)N[C@@H](C)C(=O)N[C@@H](CCC(N)=O)C(=O)N[C@@H](CCCCN)C(N)=O)C(C)C)[C@@H](C)CC)[C@@H](C)CC)[C@@H](C)CC)[C@@H](C)O` [AT104, [hGIP(3-30)NH2—C16/3]] yielded an Emax at human GIP receptor [1] of 81%. Further, the IC50 is 75 nM on human GIP receptor [2] (Table 3b, initial data, read-out: Binding IC50) and 75 nM at human GIP receptor [2] (setting [4]). Also, at human GIP receptor [2] (fold decrease in affinity compared to GIP(3-30)NH2, Table 3b), the “Binding fold (paired)” value was determined as 4.9 fold.
Compound `CCCCCCCCCCCCCCCCCC(=O)NCCCC[C@H](NC(=O)[C@H](CCC(N)=O)NC(=O)[C@H](C)NC(=O)[C@H](CC(C)C)NC(=O)[C@H](CC(C)C)NC(=O)[C@H](Cc1c[nH]c2ccccc12)NC(=O)[C@H](CC(N)=O)NC(=O)[C@@H](NC(=O)[C@H](Cc1ccccc1)NC(=O)[C@H](CC(=O)O)NC(=O)[C@H](CCC(N)=O)NC(=O)[C@H](CCC(N)=O)NC(=O)[C@H](Cc1c[nH]cn1)NC(=O)[C@@H](NC(=O)[C@H](CCCCN)NC(=O)[C@H](CC(=O)O)NC(=O)[C@H](CCSC)NC(=O)[C@H](C)NC(=O)[C@@H](NC(=O)[C@H](CO)NC(=O)[C@H](Cc1ccc(O)cc1)NC(=O)[C@H](CC(=O)O)NC(=O)[C@H](CO)NC(=O)[C@@H](NC(=O)[C@H](Cc1ccccc1)NC(=O)[C@@H](N)[C@@H](C)O)[C@@H](C)CC)[C@@H](C)CC)[C@@H](C)CC)C(C)C)C(N)=O` [AT129, [hGIP(5-30)NH2—C18/30]] came in with an Emax on human GIP receptor [1] of 0%. At human GIP receptor [2] (heterologous competition binding, transiently transfected COS-7 cells expressing the human GIP receptor, log value of the nM column, read-out: Binding log (converted)), the IC50 was 126000 nM.
`CCCCCCCCCCCC(=O)N[C@@H](CCC(=O)O)C(=O)NCC(=O)N[C@H](C(=O)N[C@@H](Cc1ccccc1)C(=O)N[C@H](C(=O)N[C@@H](CO)C(=O)N[C@@H](CC(=O)O)C(=O)N[C@@H](Cc1ccc(O)cc1)C(=O)N[C@@H](CO)C(=O)N[C@H](C(=O)N[C@@H](C)C(=O)N[C@@H](CCSC)C(=O)N[C@@H](CC(=O)O)C(=O)N[C@@H](CCCCN)C(=O)N[C@H](C(=O)N[C@@H](Cc1c[nH]cn1)C(=O)N[C@@H](CCC(N)=O)C(=O)N[C@@H](CCC(N)=O)C(=O)N[C@@H](CC(=O)O)C(=O)N[C@@H](Cc1ccccc1)C(=O)N[C@H](C(=O)N[C@@H](CC(N)=O)C(=O)N[C@@H](Cc1c[nH]c2ccccc12)C(=O)N[C@@H](CC(C)C)C(=O)N[C@@H](CC(C)C)C(=O)N[C@@H](C)C(=O)N[C@@H](CCC(N)=O)C(=O)N[C@@H](CCCCN)C(N)=O)C(C)C)[C@@H](C)CC)[C@@H](C)CC)[C@@H](C)CC)[C@@H](C)O` [AT148, [hGIP(3-30)NH2—C12/3]]: on human GIP receptor [1], the Emax stood at 43%. In addition, the concentration giving a half-maximal response (EC50) – broadly, the concentration at which the effect is half-maximal – on human GIP receptor [1] (read-out: cAMP agonism nM (EC50)) is 13 nM. The IC50 on human GIP receptor [2] (setting [4]) worked out at 24 nM.
In turn, `CCCCCCCCCCCCCC(=O)NCCCC[C@H](NC(=O)[C@H](CC(=O)O)NC(=O)[C@H](CCSC)NC(=O)[C@H](C)NC(=O)[C@@H](NC(=O)[C@H](CO)NC(=O)[C@H](Cc1ccc(O)cc1)NC(=O)[C@H](CC(=O)O)NC(=O)[C@H](CO)NC(=O)[C@@H](NC(=O)[C@H](Cc1ccccc1)NC(=O)[C@@H](N)[C@@H](C)O)[C@@H](C)CC)[C@@H](C)CC)C(=O)N[C@H](C(=O)N[C@@H](Cc1c[nH]cn1)C(=O)N[C@@H](CCC(N)=O)C(=O)N[C@@H](CCC(N)=O)C(=O)N[C@@H](CC(=O)O)C(=O)N[C@@H](Cc1ccccc1)C(=O)N[C@H](C(=O)N[C@@H](CC(N)=O)C(=O)N[C@@H](Cc1c[nH]c2ccccc12)C(=O)N[C@@H](CC(C)C)C(=O)N[C@@H](CC(C)C)C(=O)N[C@@H](C)C(=O)N[C@@H](CCC(N)=O)C(=O)N[C@@H](CCCCN)C(N)=O)C(C)C)[C@@H](C)CC` [AT122, [hGIP(5-30)NH2—C14/16]] returned an Emax on human GIP receptor [1] of 0%. In addition, the “Fold change HSA (2%)/Casein (0.1%)” value at human GIP receptor [2] stood at 4.9. Moreover, on human GIP receptor [2] (setting [3]), the IC50 was 1260 nM.
For `CCCCCCCCCCCCCCCCCC(=O)N[C@H](C(=O)N[C@@H](Cc1ccccc1)C(=O)N[C@H](C(=O)N[C@@H](CO)C(=O)N[C@@H](CC(=O)O)C(=O)N[C@@H](Cc1ccc(O)cc1)C(=O)N[C@@H](CO)C(=O)N[C@H](C(=O)N[C@@H](C)C(=O)N[C@@H](CCSC)C(=O)N[C@@H](CC(=O)O)C(=O)N[C@@H](CCCCN)C(=O)N[C@H](C(=O)N[C@@H](Cc1c[nH]cn1)C(=O)N[C@@H](CCC(N)=O)C(=O)N[C@@H](CCC(N)=O)C(=O)N[C@@H](CC(=O)O)C(=O)N[C@@H](Cc1ccccc1)C(=O)N[C@H](C(=O)N[C@@H](CC(N)=O)C(=O)N[C@@H](Cc1c[nH]c2ccccc12)C(=O)N[C@@H](CC(C)C)C(=O)N[C@@H](CC(C)C)C(=O)N[C@@H](C)C(=O)N[C@@H](CCC(N)=O)C(=O)N[C@@H](CCCCN)C(N)=O)C(C)C)[C@@H](C)CC)[C@@H](C)CC)[C@@H](C)CC)[C@@H](C)O` [AT127, [hGIP(5-30)NH2—C18/5]] the same measures were 0%, 0.0 and 1580 nM.
As to `CCCCCCCCCCCCCCCCCC(=O)NCCCC[C@H](NC(=O)[C@H](CC(=O)O)NC(=O)[C@H](CCSC)NC(=O)[C@H](C)NC(=O)[C@@H](NC(=O)[C@H](CO)NC(=O)[C@H](Cc1ccc(O)cc1)NC(=O)[C@H](CC(=O)O)NC(=O)[C@H](CO)NC(=O)[C@@H](NC(=O)[C@H](Cc1ccccc1)NC(=O)[C@@H](NC(=O)CNC(=O)[C@@H](N)CCC(=O)O)[C@@H](C)O)[C@@H](C)CC)[C@@H](C)CC)C(=O)N[C@H](C(=O)N[C@@H](CCCNC(=N)N)C(=O)N[C@@H](CCC(N)=O)C(=O)N[C@@H](CCC(N)=O)C(=O)N[C@@H](CC(=O)O)C(=O)N[C@@H](Cc1ccccc1)C(=O)N[C@H](C(=O)N[C@@H](CC(N)=O)C(=O)N[C@@H](Cc1c[nH]c2ccccc12)C(=O)N[C@@H](CC(C)C)C(=O)N[C@@H](CC(C)C)C(=O)N[C@@H](C)C(=O)N[C@@H](CCC(N)=O)C(=O)N[C@@H](CCCNC(=N)N)C(N)=O)C(C)C)[C@@H](C)CC` [AT162, [hGIP(3-30)NH2[H18R; K30R]-C18/16]], at human GIP receptor [1], the Emax worked out at 44%. The “Fold change in affinity, IC50 (plus HSA)/IC50 (minus HSA)” value on human GIP receptor [2] (presence vs absence of 2% HSA, proxy for albumin binding) stood at 5.6 fold.
